Test results taken from ChEMBL document CHEMBL1201862, “PubChem BioAssay data set” (2004).
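Exposure lasted 48 hours, with cells grown in 96-well plates and compounds tested at five concentrations. Abbreviation: GI50, concentration required for 50% inhibition of growth.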 Calls of active or inactive are those of the source. No stated cut-off is given here; in the data, active = GI50 up to about 1.1 µM and inactive = higher.

Tests used:
Experiment in all cases: NCI anticancer screen, dose series, 48 h
[1] = system: A498
[2] = system: DU-145
[3] = system: EKVX
[4] = system: Hs-578T
[5] = system: M14
[6] = system: MCF7
[7] = system: MDA-MB-435
[8] = system: NCI-H522
[9] = system: NCI/ADR-RES
[10] = system: OVCAR-3
[11] = system: OVCAR-4
[12] = system: SK-MEL-28
[13] = system: SN12C
[14] = system: SR
[15] = system: U-251
[16] = system: UACC-257
[17] = system: 786-0
[18] = system: SF-295
[19] = system: SK-OV-3
[20] = system: TK-10

Measured: GI50

O=c1cnn(C/C=C/CBr)c(=O)[nH]1
inactive: [1] 14.9 µM | [2] 24.2 µM | [3] 19.6 µM | [4] 33 µM | [5] 15.3 µM | [6] 12.9 µM | [7] 14.9 µM | [8] 8.17 µM | [9] 23.3 µM | [10] 25.7 µM | [11] 20.6 µM | [12] 19.2 µM | [13] 17.9 µM | [14] 17.7 µM | [15] 15 µM | [16] 13.9 µM

CN1C(=O)CC2CCCN2C1=O (stereo unspecified)
inactive: [17] > 100 µM | [1] > 100 µM | [2] > 100 µM | [3] > 100 µM | [4] > 100 µM | [5] > 100 µM | [6] > 100 µM | [7] > 100 µM | [8] > 100 µM | [9] > 100 µM | [10] > 100 µM | [11] > 100 µM | [18] > 100 µM | [12] 5.09 µM | [19] > 100 µM | [14] > 100 µM | [20] > 100 µM | [15] > 100 µM | [16] > 100 µM

C=C(C)C1CC2(C)C(C)CC(OC(=O)/C(C)=C\C)CC2C(OC(=O)/C(C)=C\C)C1O (stereo unspecified)
inactive: [17] > 100 µM | [1] > 100 µM | [2] 66.8 µM | [3] 67 µM | [4] 34.7 µM | [5] > 100 µM | [6] 41.2 µM | [7] 55.3 µM | [8] 32.7 µM | [9] > 100 µM | [11] > 100 µM | [12] > 100 µM | [19] > 100 µM | [13] 62.2 µM | [14] 19.8 µM | [20] > 100 µM | [15] 75.5 µM | [16] 89.1 µM

CCOC(=O)N1c2ccccc2S(=O)(=O)c2ccccc21
inactive: [17] > 100 µM | [1] > 100 µM | [2] > 100 µM | [3] > 100 µM | [4] > 100 µM | [5] > 100 µM | [6] > 100 µM | [7] > 100 µM | [8] > 100 µM | [9] > 100 µM | [10] > 100 µM | [11] > 100 µM | [18] > 100 µM | [12] > 100 µM | [19] > 100 µM | [13] > 100 µM | [20] > 100 µM | [15] > 100 µM | [16] > 100 µM

CSc1c(C#N)c2n(c3ccccc3[n+]2C)c2ncccc12
inactive: [17] 17.7 µM | [1] 25.8 µM | [2] 13.9 µM | [3] 21.7 µM | [4] 36.7 µM | [5] 21.2 µM | [6] 15 µM | [7] 32 µM | [8] 19.5 µM | [9] 28.4 µM | [10] 22.2 µM | [11] 30.8 µM | [18] 18.9 µM | [12] 21.4 µM | [19] 36.1 µM | [13] 21.2 µM | [14] 23.5 µM | [15] 24 µM

CCCCCCCCCCOC1C(C(O)CNCCCN(C)C)OC2OC3(CCCCC3)OC21 (stereo unspecified)
inactive: [17] 1.9 µM | [2] 3.35 µM | [3] 3.71 µM | [4] 3.17 µM | [5] 2 µM | [6] 2.07 µM | [7] 2.03 µM | [8] 1.82 µM | [9] 3.31 µM | [10] 1.96 µM | [11] 2.04 µM | [18] 1.86 µM | [12] 1.66 µM | [19] 3.65 µM | [13] 2.33 µM | [20] 3.21 µM | [15] 1.84 µM | [16] 4.05 µM
active: [14] 0.329 µM

N=C(N)NCCCC(NC(=O)OCCCCCn1ccc(N)nc1=O)C(=O)O (stereo unspecified)
inactive: [17] > 100 µM | [1] > 100 µM | [2] > 100 µM | [3] > 100 µM | [4] > 100 µM | [5] > 100 µM | [6] > 100 µM | [7] > 100 µM | [9] > 100 µM | [10] > 100 µM | [11] > 100 µM | [18] > 100 µM | [12] > 100 µM | [19] > 100 µM | [13] > 100 µM | [14] > 100 µM | [20] > 100 µM | [15] > 100 µM | [16] > 100 µM

CC(C)CC1NC(=O)C(C(C)C)NC(=O)CC(C)COC(=O)C(CC(C)C)N(C)C(=O)C(C(C)C)NC(=O)C(C(C)C)OC1=O (stereo unspecified)
inactive: [17] 31.3 µM | [1] > 50 µM | [2] > 50 µM | [3] > 50 µM | [4] 26.7 µM | [5] 38.5 µM | [6] > 50 µM | [7] > 50 µM | [8] > 50 µM | [9] > 50 µM | [10] > 50 µM | [18] 38.4 µM | [12] > 50 µM | [19] 29.1 µM | [13] > 50 µM | [14] > 50 µM | [15] 31.2 µM | [16] > 50 µM
